Values after ≈ are worked out from the molar mass of the structure shown. Read-outs that look alike come from different tables or passages of the source. Values belong to the molecule of their own block, whether it stands above or below them. Non-standard residues stand in square brackets, D forms with d. Residues, ends and D or L forms follow the SMILES beside them. Bip = N[C@@H](Cc1ccc(-c2ccccc2)cc1)C(=O)O
Key:
[1] = test system: E. faecium ATCC51559; assay type: cell-based, Enterococcus faecium
Procedure: (§1) Bacterial strains used in this study included Enterococcus faecium ATCC51559, Staphylococcus aureus USA300 LAC, Klebsiella pneumoniae ATCC 13883, Acinetobacter baumannii B2367-12, Pseudomonas aeruginosa PAO1, Enterobacter cloacae B2366-12 and Escherichia coli ATCC 25922, wherein the first six constituting the ESKAPE pathogens. Tryptic soy broth (TSB) for bacterial growth was obtained from BD Bioscience (Sparks, Md.).
(§2) The antibacterial activity of peptides was evaluated using a standard broth microdilution protocol as described (Wang et al. (2012) Antimicrob. Agents Chemother., 56:845-856). In brief, 5 μl of each bacterium (stored at −80° C.) were inoculated into TSB medium (2 ml) and grown overnight. A second inoculation was made in the morning by delivering 10 μl of the overnight culture to a fresh TSB medium. After 2-3 hours growth at 37° C., 225 rpm, logarithmic phase bacterial cultures (OD600≈0.5) were diluted and partitioned into a 96-well polystyrene microplate with ˜10^5 colony forming units (CFU) per well (90 μl aliquots). After treatment with 10 μl of peptide solutions at various concentrations, microplates were incubated at 37° C. overnight and read on a ChroMate® 4300 Microplate Reader at 630 nm (GMI, Ramsey, Minn.). The medium was used as a blank where no bacteria should grow.

[2] = test system: S. aureus USA300 LAC; assay type: cell-based, Staphylococcus aureus
Procedure: as §1, §2

[3] = test system: A. baumannii B2367-12; assay type: cell-based, Acinetobacter baumannii
Procedure: as §1, §2

[4] = test system: P. aeruginosa PAO1; assay type: cell-based, Pseudomonas aeruginosa
Procedure: as §1, §2

[5] = test system: E. cloacae B2366-12; assay type: cell-based, Enterobacter cloacae
Procedure: as §1, §2

[6] = test system: E. coli ATCC 25922; assay type: cell-based, Escherichia coli
Procedure: as §1, §2

[7] = test system: E. coli K12; assay type: cell-based, Escherichia coli; details: K12
Procedure: (§3) The bacterial strains used here included Gram-positive bacteria Staphylococcus aureus USA300 LAC, Staphylococcus epidermidis 1457, Bacillus subtilis 168, and Gram-negative Escherichia coli K12. Clinical strains of S. aureus, including Mu50, UAMS-1 and Newman, were also evaluated.
(§4) The antimicrobial activity of peptides was evaluated using a standard broth microdilution protocol (Wang, G. (2008) J. Biol. Chem., 283:32637-32643). In brief, exponential phase bacteria at 10^6 CFU were incubated with serially diluted peptides overnight for ˜20 hours at 37° C. The plates were read on a ChroMate® 4300 Microplate Reader at 630 nm (GMI, Ramsey, Minn.). […] In addition, the effects of human serum (up to 10%), pH (6.8, 7.4 and 8.0) and 150 mM sodium chloride (NaCl) on MICs against S. aureus USA300 were also evaluated (Mishra et al. (2015) RSC Advances 5:59758-59769).

[8] = test system: S. epidermidis 1457; assay type: cell-based, Staphylococcus epidermidis
Procedure: as §3, §4

[9] = test system: B. subtilis 168; assay type: cell-based, Bacillus subtilis
Procedure: as §3, §4

[10] = test system: S. aureus Mu50; assay type: cell-based, Staphylococcus aureus
Procedure: as §3, §4

[11] = test system: S. aureus Newman; assay type: cell-based, Staphylococcus aureus
Procedure: as §3, §4

[12] = test system: S. aureus UAMS-1; assay type: cell-based, Staphylococcus aureus
Procedure: as §3, §4

[13] = test system: S. aureus USA300; assay type: cell-based, Staphylococcus aureus
Procedure: as §3, §4

[14] = test system: S. aureus USA300; assay type: cell-based, Staphylococcus aureus; details: USA300
Procedure: The minimal bactericidal concentration (MBC) was determined by plating 50 μl of the content in the clear wells of the above MIC assays. MBC was determined on the petri dishes without bacterial colony formation after overnight growth (Wang et al. (2012) Biochemistry 51:653-664).

[15] = test system: Candida albicans ATCC 10231; assay type: cell-based; details: ATCC 10231, 48 h
Procedure: (§5) Fungal strains used in this study include Candida albicans ATCC 10231, C. glabrata ATCC 2001 and C. tropicalis ATCC 13803. The fungi were grown in Remel Dex broth (Thermo Fisher Scientific, KS). Antifungal assays were conducted essentially as described for antibacterial assays above, except for a higher starting density at an OD600 0.02 and a longer incubation time of ˜48 hours prior to microplate reading (Mishra et al. (2015) RSC Advances 5:59758-59769).

[16] = test system: C. glabrata ATCC 2001; assay type: cell-based, Candida glabrata; details: ATCC 2001, 48 h
Procedure: as §5

[17] = test system: C. tropicalis ATCC 13803; assay type: cell-based, Candida tropicalis; details: ATCC 13803, 48 h
Procedure: as §5

[18] = Hemolytic assay; assay type: cell-based; details: red blood cells, hemolysis
Procedure: Hemolytic analysis of selected peptides was performed using an established protocol (Mishra et al. (2015) RSC Advances 5:59758-59769). Briefly, human blood cells (UNMC Blood Bank) were washed three times with phosphate buffer saline (PBS) and diluted to a 2% solution. After peptide treatment, incubation at 37° C. for one hour, and centrifugation at 13,000 rpm, aliquots of the supernatant were transferred to a fresh 96-well microplate. To assess peptide cytotoxicity, the amount of hemoglobin released was measured at 545 nm. The percent lysis was calculated by assuming 100% release when human blood cells were treated with 1% TRITON™ X-100, and 0% release when incubated with PBS buffer. The hemolytic assays using chicken, bovine, and porcine blood cells (Lampire Biological Laboratories, Inc.) were performed in the same manner.

[19] = MTS cytotoxicity assay; assay type: cell-based; details: human
Procedure: (§6) HeLa CCL-2 epithelial adenocarcinoma cells from American Type Culture Collection (ATCC) were maintained in DMEM high glucose media with 4 mM L-glutamine (NyClone) and 100 U/mL penicillin, 100 μg/mL streptomycin (pen/strep) (Life Technologies), and 10% (v/v) inactivated fetal bovine serum (FBS) (NyClone). Cells were grown in 5% CO2 at 37° C. and were detached from the culturing dish at 80% confluency using 0.025% trypsin-EDTA (NyClone) treatment. Peptide influence on the cell viability was estimated by using the MTS assay according to the manufacturer's protocol (MTS, CellTiter96® AQ One Solution Cell Proliferation Assay, Promega) with minor modifications and as described elsewhere (Mishra et al. (2015) RSC Advances 5:59758-59769). In short, cells were cultured in flat bottomed 96 well microtiter plates (Corning Life Science) at a seeding density of 20,000 cells/well. At confluence ˜100% achieved after 20-24 hours of cultivation, the cells were washed twice with 100 μL Dulbecco's Phosphate Buffered Saline (Life Technologies). Further, 90 μL of DMEM media with 10% FBS, pen/step was added before exposure to 10 μL of the peptide solution in the concentration range 12.5-100 μM. Plates were incubated at 37° C. After 1 hour, 10 μL MTS, CellTiter96® was added. Plates were further incubated for another 2 hours at 37° C. and finally, the absorbance was measured on ChroMate® reader (Awareness Technology) at 492 nm. Culture medium and 0.2% SDS were used as negative and positive controls, respectively.
Human skin HaCaT (immortalized keratinocyte from AddexBio, T0020001) and kidney HEK293 cells were also cultivated for cytotoxicity evaluation of the peptides in a similar manner.

[20] = MTS cytotoxicity assay; assay type: cell-based; details: human, HeLa CCL-2 cells
Procedure: as §6

- MIC EF ([1]; ATCC51559): ≤3.1 µM
- MIC SA ([2]; USA300): 3.1 ± 0 µM (≈ 6.99 µg/mL)
- MIC AB ([3]; B2367-12): 3.1 ± 0 µM (≈ 6.99 µg/mL)
- MIC PA ([4]; PAO1): 6.25 ± 0 µM (≈ 14.1 µg/mL)
- MIC ECl ([5]; B2366-12): 6.25 ± 0 µM (≈ 14.1 µg/mL)
- MIC EC ([6]; ATCC 25922): 3.1 ± 0 µM (≈ 6.99 µg/mL)
Compound: CC(C)C[C@H](NC(=O)[C@H](CC(N)=O)NC(=O)[C@H](CCCNC(=N)N)NC(=O)[C@@H](CC(C)C)NC(=O)[C@H](Cc1ccc(-c2ccccc2)cc1)NC(=O)[C@H](CC(=O)O)NC(=O)[C@H](CCCCN)NC(=O)[C@@H](CC(C)C)NC(=O)[C@H](CCCNC(=N)N)NC(=O)[C@H](CCC(N)=O)NC(=O)[C@@H](NC(=O)[C@@H](CC(C)C)NC(=O)[C@H](CCCNC(=N)N)NC(=O)[C@H](CCCCN)NC(=O)[C@H](Cc1ccc(-c2ccccc2)cc1)NC(=O)CN)C(C)C)C(=O)N[C@H](C(N)=O)C(C)C [Merecidin, reference compound] (H-G[Bip]KR[dL]VQR[dL]KD[Bip][dL]RNLV-NH2; N-terminus and C-terminus assumed)

Compound: CC[C@H](C)[C@H](NC(=O)[C@H](CCCNC(=N)N)NC(=O)[C@H](CCCCN)NC(=O)[C@H](CC(C)C)NC(=O)[C@H](Cc1c[nH]c2ccccc12)NC(=O)[C@H](Cc1c[nH]c2ccccc12)NC(=O)[C@@H](N)Cc1c[nH]c2ccccc12)C(=O)N[C@@H](Cc1c[nH]c2ccccc12)C(N)=O [TetraF2W-KR, WWWLKRIW] (H-WWWLKRIW-NH2; N-terminus and C-terminus assumed)
- MIC E. coli K12 [7]: 12.5 to 25 µM
- MIC S. epidermidis 1457 [8]: 12.5 µM (≈ 15.9 µg/mL)
- MIC B. subtilis 168 [9]: 6.2 µM (≈ 7.89 µg/mL)
- Antimicrobial activity (MIC) Mu50 [10]: 6.2 µM
- Antimicrobial activity (MIC) Newman [11]: 3.1 to 6.2 µM
- Antimicrobial activity (MIC) UAMS-1 [12]: 6.2 µM
- change in MIC on drop of pH from 8 to 6.8 ([13]; S. aureus USA300): two-fold
- Antimicrobial activity (MIC) 150 mM NaCl ([13]; USA300): 3.1 µM
- Antimicrobial activity (MIC) USA300 ([13]; USA300): 3.1 µM
- MIC S. aureus USA300 ([13]; USA300): 3.1 µM (≈ 3.94 µg/mL)
- Antimicrobial activity (MIC) pH 6.8 ([13]; USA300, pH 6.8): 6.2 μM
- Antimicrobial activity (MIC) Normal medium (pH 7.4) ([13]; USA300, pH 7.4): 3.1 μM
- Antimicrobial activity (MIC) pH 8 ([13]; USA300, pH 8): 3.1 μM
- MBC S. aureus USA300 [14]: 12.5 µM (≈ 15.9 µg/mL)
- MIC Candida albicans [15]: 12.5 µM (≈ 15.9 µg/mL)
- MIC Candida glabrata [16]: 12.5 µM (≈ 15.9 µg/mL)
- MIC Candida tropicalis [17]: 3.1 to 6.2 µM
- CC50 at 1 hour ([18]; chicken, read-out: LC50 Chicken RBCs): 35 µM
- CC50 at 1 hour ([18]; human, read-out: LC50 Human RBCs): 30 µM
- CC50 at 1 hour ([18]; pig, read-out: LC50 Porcine RBCs): 50 µM
- CC50 at 1 hour ([19]; HEK293 cells): 55 µM
- CC50 at 1 hour ([19]; HaCaT cells): 60 µM
- CC50 at 1 hour [20]: 100 µM

- MIC EF [1]: 6.25 µM (≈ 13.4 µg/mL)
- MIC SA [2]: 18 µM (≈ 38.7 µg/mL)
- MIC AB [3]: 25 µM (≈ 53.7 µg/mL)
- MIC PA [4]: > 50 µM
- MIC ECl [5]: > 50 µM
- MIC EC [6]: > 50 µM
Compound: CC[C@H](C)[C@H](NC(=O)[C@H](CCCNC(=N)N)NC(=O)[C@H](CCC(N)=O)NC(=O)[C@@H](NC(=O)[C@@H](NC(=O)[C@H](CCCNC(=N)N)NC(=O)[C@H](CCCCN)NC(=O)[C@H](Cc1ccccc1)NC(=O)[C@@H](N)CS)[C@@H](C)CC)C(C)C)C(=O)N[C@@H](CCCCN)C(=O)N[C@@H](CC(=O)O)C(=O)N[C@@H](Cc1ccccc1)C(=O)N[C@@H](CC(C)C)C(=O)N[C@@H](CCCNC(=N)N)C(=O)N[C@@H](CC(N)=O)C(=O)N[C@@H](CC(C)C)C(=O)N[C@H](C(N)=O)C(C)C [CysFK-16] (H-CFKRIVQRIKDFLRNLV-NH2; N-terminus and C-terminus assumed)

From US20190048052A1, “ANTI-MICROBIAL PEPTIDES AND COATINGS” (Board of Regents of the University of Nebraska, priority 2016, published 2019)
